Broadly, the pKi is the Ki on a negative log10 scale, so that one unit is a factor of ten.

We go through 6 molecules from ChEMBL document CHEMBL1938342 (J Med Chem, 2011).

Structures are written as SMILES. pKi: −log10 of the molar value. Active and inactive are the calls of the source. The rule behind the calls is not given here. A value given as a limit tells only on which side of the number the result lay.

The subject of data set [1] is Mus musculus. The data set can be described thus: Toxicity in mouse 4T1 cells expressing CA9 xenografted BALB/c mouse assessed as weight loss at 30 mg/kg, iv administered on days 11,13,16 and 19. The settings on record: in vivo.
In data set [2] the test system is Mus musculus. The data set can be described thus: Toxicity in mouse 4T1 cells expressing […] xenografted BALB/c mouse assessed as mortality at 30 mg/kg, iv administered on days 11,13,16 and 19. The data set is classed as organism-based. Set-up: dose 30 mg/kg, route intravenous. The note with it: in vivo.
A further data set has as its target Carbonic anhydrase 2 (Homo sapiens, UniProt P00918). In words: Inhibition of human full-length cytosolic CA2 after 6 hrs by stopped flow CO2 hydration assay.
A further data set deals with 4T1. In words: Anticancer activity against mouse 4T1 cells expressing CA9 xenografted in BALB/c mouse assessed as tumor growth inhibition at 30 mg/kg, iv administered on days 11,13,16 and 19.
In the next data set the target is Carbonic anhydrase 1 (Homo sapiens, UniProt P00915). The data set can be described thus: Inhibition of human full-length cytosolic CA1 after 6 hrs by stopped flow CO2 hydration assay.
The target of the next data set is Carbonic anhydrase 9 (Homo sapiens, UniProt Q16790). In words: Inhibition of human recombinant CA9 after 6 hrs by stopped flow CO2 hydration assay.
The target in the next data set is Carbonic anhydrase 12 (Homo sapiens, UniProt O43570). The data set can be described thus: Inhibition of human recombinant CA12 after 6 hrs by stopped flow CO2 hydration assay.
Carbonic anhydrase 12, sequence (O43570 whole entry): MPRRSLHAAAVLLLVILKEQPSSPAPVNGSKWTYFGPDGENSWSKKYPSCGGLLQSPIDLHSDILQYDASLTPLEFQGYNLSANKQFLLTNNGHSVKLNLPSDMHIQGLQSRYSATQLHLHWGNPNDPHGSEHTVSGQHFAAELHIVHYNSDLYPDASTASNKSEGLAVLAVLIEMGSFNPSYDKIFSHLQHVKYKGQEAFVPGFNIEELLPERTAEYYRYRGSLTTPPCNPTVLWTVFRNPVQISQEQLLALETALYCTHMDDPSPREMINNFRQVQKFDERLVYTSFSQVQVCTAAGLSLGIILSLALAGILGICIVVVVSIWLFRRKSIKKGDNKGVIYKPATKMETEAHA

Carbonic anhydrase 1, sequence (P00915 whole entry): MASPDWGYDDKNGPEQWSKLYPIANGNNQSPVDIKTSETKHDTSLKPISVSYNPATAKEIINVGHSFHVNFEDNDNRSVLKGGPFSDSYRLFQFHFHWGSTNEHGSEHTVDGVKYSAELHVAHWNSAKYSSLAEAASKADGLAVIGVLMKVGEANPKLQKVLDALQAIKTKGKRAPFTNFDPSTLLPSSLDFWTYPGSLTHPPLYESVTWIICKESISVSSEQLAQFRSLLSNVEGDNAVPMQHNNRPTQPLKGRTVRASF

`Cc1cc(=O)oc2cc(O[C@H]3O[C@H](CO)[C@@H](O)[C@H](O)[C@@H]3O)ccc12`: the Activity result in the data set on Mus musculus [1] and in the data set on Mus musculus [2] was “Non-toxic” each time. In addition, the pKi at Carbonic anhydrase 2 was less than 4.00; at Carbonic anhydrase 1 it was less than 4.00; at Carbonic anhydrase 9, 8.04; on Carbonic anhydrase 12 it was 7.37. In addition, the “growth inhibition (GI)” value in the data set with 4T1 is “Active”.
For the molecule `Cc1cc(=O)oc2cc(O[C@@H]3O[C@H](CO)[C@@H](O)[C@H](O)[C@H]3O)ccc12`, the pKi on Carbonic anhydrase 2 was less than 4.00; on Carbonic anhydrase 1, 6.00; at Carbonic anhydrase 9, 6.43; at Carbonic anhydrase 12 it was 7.27.
Take `Cc1cc(=O)oc2cc(O[C@@H]3O[C@@H](C)[C@H](O)[C@@H](O)[C@H]3O)ccc12`: the pKi on Carbonic anhydrase 2 was less than 4.00; on Carbonic anhydrase 1, less than 4.00; on Carbonic anhydrase 9 it was 6.70; at Carbonic anhydrase 12 it was 6.74.
`Cc1cc(=O)oc2cc(O)ccc12` [HYMECROMONE]: the pKi was less than 4.00 on Carbonic anhydrase 2, less than 4.00 on Carbonic anhydrase 1, 6.25 at Carbonic anhydrase 9 and 5.09 at Carbonic anhydrase 12.
Turning to `Cc1cc(=O)oc2cc(O[C@@H]3O[C@H](CO)[C@H](O)[C@H](O)[C@H]3O)ccc12`, the pKi on Carbonic anhydrase 2 is 4.11; on Carbonic anhydrase 1, 6.23; at Carbonic anhydrase 9, 7.03; at Carbonic anhydrase 12, 8.07.
For the molecule `Cc1cc(=O)oc2cc(O[C@@H]3O[C@H](CO[C@H]4O[C@H](CO)[C@H](O)[C@H](O)[C@H]4O)[C@@H](O)[C@H](O)[C@H]3O)ccc12`, the pKi at Carbonic anhydrase 2 was 6.23; at Carbonic anhydrase 1, 6.06; on Carbonic anhydrase 9, 6.09; on Carbonic anhydrase 12, 7.00.
